Measured values reported in article PMC3740188 (Protein & cell, 2013).

Columns and labels:
Assay type in all cases: binding
[1] = target: T1, AT cpn-β (thermosome cpn-β) (Acidianus tengchongensis, UniProt Q877H2); experiment: heating […] min then native PAGE of oligomer dissociation; details: ADP in place of ATP; pH 7.5, MgCl2
T1 sequence (Q877H2 1-553): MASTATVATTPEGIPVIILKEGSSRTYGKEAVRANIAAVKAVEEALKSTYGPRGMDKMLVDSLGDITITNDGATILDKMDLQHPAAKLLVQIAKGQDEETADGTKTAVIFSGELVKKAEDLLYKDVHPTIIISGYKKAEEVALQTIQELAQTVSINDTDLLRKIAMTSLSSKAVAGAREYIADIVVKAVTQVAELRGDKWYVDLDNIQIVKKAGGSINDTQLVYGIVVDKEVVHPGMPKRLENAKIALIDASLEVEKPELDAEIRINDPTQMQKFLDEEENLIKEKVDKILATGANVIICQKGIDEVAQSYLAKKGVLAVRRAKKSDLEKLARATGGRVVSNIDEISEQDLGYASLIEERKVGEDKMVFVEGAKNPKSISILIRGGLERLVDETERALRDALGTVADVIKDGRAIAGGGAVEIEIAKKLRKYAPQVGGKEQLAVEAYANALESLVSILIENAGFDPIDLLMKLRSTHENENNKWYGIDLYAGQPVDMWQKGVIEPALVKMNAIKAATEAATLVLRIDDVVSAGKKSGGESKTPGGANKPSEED

[2] = target: T2, AT cpn-α (thermosome cpn-α) (Acidianus tengchongensis, UniProt Q877H0); experiment: as above; details: ADP in place of ATP; pH 7.5, MgCl2
T2 sequence (Q877H0 1-563): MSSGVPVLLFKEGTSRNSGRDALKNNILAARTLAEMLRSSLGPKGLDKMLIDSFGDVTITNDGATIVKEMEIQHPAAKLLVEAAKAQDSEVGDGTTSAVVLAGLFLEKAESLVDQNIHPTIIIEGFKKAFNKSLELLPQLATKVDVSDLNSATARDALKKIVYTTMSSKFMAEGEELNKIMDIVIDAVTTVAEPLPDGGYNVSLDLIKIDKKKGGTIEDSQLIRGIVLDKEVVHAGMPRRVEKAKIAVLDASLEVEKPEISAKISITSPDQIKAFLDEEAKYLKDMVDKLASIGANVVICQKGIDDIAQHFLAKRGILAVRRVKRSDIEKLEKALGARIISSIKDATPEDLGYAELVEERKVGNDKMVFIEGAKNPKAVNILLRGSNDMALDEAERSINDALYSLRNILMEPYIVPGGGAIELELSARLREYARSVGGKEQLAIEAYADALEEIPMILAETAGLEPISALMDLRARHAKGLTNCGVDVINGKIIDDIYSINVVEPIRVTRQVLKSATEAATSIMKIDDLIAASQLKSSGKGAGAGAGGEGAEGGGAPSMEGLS

[3] = target: T2, AT cpn-α (thermosome cpn-α); experiment: nucleotide-induced oligomer assembly by native PAGE; details: 2 mM nucleotide, 20 mM MgCl2, pH 7.5, 37 °C, 8 h
[4] = target: T1, AT cpn-β (thermosome cpn-β); experiment: as above; details: 2 mM nucleotide, 20 mM MgCl2, pH 7.5, 37 °C, 8 h
[5] = target: T1, AT cpn-β (thermosome cpn-β); experiment: cryo-EM reconstruction with MDFF model; details: pH 7.5, 12 mM Mg, 50 mM KCl; 6.2/5.0 Å resolution

Row | Compound | Td [1] | Td [2] | nucleotide-induced oligomer assembly by native PAGE [3] | nucleotide-induced oligomer assembly by native PAGE [4] | cryo-EM reconstruction with MDFF model [5]
1 | Nc1ncnc2c1ncn2[C@@H]1O[C@H](COP(=O)(O)OP(=O)(O)O)[C@@H](O)[C@H]1O [ADP] | ADP binding also increased the thermal stability of cpn-α and cpn-β | ADP binding also increased the thermal stability of cpn-α and cpn-β |  |  | 
2 | Nc1ncnc2c1ncn2[C@@H]1O[C@H](COP(=O)(O)OP(=O)(O)NP(=O)(O)O)[C@@H](O)[C@H]1O [AMP-PNP] |  |  | all nucleotides could efficiently induce the assembly of thermosomes for both cpn-α | all nucleotides could efficiently induce the assembly of thermosomes for both cpn-α | 
3 | Nc1ncnc2c1ncn2[C@@H]1O[C@H](COP(=O)(O)OP(=O)(O)OP(=O)(O)O)[C@@H](O)[C@H]1O [ATP] |  |  |  |  | cryoEM reconstructions of cpn-β in the apo or ATP-binding state
4 | Nc1nc2c(ncn2[C@@H]2O[C@H](COP(=O)(O)OP(=O)(O)OP(=O)(O)O)[C@@H](O)[C@H]2O)c(=O)[nH]1 [GTP] |  |  | even GTP could induce the assembly of thermosomes | even GTP could induce the assembly of thermosomes | 
